According to patent EP1845096A1, “12-Aza-epothilones, process for their preparation and their use as antiproliferative agents” (ETH Zürich, priority 2006, dated 2007):
Like-named read-outs stand apart in the source and are kept apart here.

Tests used:
[1] = target: porcine brain αβ-tubulin (Sus scrofa, UniProt P02554); experiment: Tubulin polymerization (turbidimetry at 340 nm); assay type: biochemical
Description: Tubulin is isolated as pure αβ-tubulin from fresh pig brain according to the method of Castoldi and Popov (Protein Expr. Purif. 2003, 32, 83-88). Working stock solutions of αβ-tubulin are stored at -80°C. Freshly thawed αβ-tubulin is centrifuged and then incubated with the compounds to be tested in suitable solvents and buffers, guanosine-5'-triphosphate (GTP), and glutamate in a 96-well plate, as described in more detail below in the Examples. The polymerization is monitored real-time at 340 nm in a temperature-controlled TECAN GeniosPro spectrophotometer. UV absorption of compounds is subtracted from absorption curves.
Tubulin was isolated as pure αβ-tubulin from fresh pig brain according to the method of Castoldi and Popov (Protein Expr. Purif. 2003, 32, 83-88). Fresh brains were obtained from the local slaughterhouse and processed immediately without prior cooling. 150-200 g cleaned pig brain was put into ice-cooled depolymerization buffer (50 mM MES [2-morpholinoethanesulphonic acid], 1 mM CaCl2, adjusted to pH 6.9 with KOH) and homogenized in a Polytron mixer. The homogenate was centrifuged in a Sorvall SLA-1500 rotor at 14500 rpm for 60 min. The supernatant was transferred into an Erlenmeyer flask in high-molarity PIPES buffer (1 M PIPES [1,4-piperazinediethanesulfonic acid], 10 mM MgCl2, 20 mM EGTA [ethylene glycol-bis-2(2-aminoethyl)-tetraacetic acid] adjusted to pH 6.9 with KOH) plus […] (1.5 mM final concentration) and glycerol (98%) ad 300 ml. The resulting suspension was mixed and incubated at 37°C for 1 hour. Aliquots were transferred into ultracentrifuge tubes and centrifuged in a Beckman Ti50.2 rotor at.32500 rpm (96000 g) for 75 min at 30°C. The microtubule protein pellets were resuspended in depolymerization buffer and put on ice prior to ultracentrifugation at 4°C. The procedure was repeated for two polymerization cycles (total of 3 cycles) and the final αβ-tubulin pellets were resuspended in ice-cold Brinkley Buffer (BRB80; 80 mM PIPES, 1 mM MgCl2, 1 mM EGTA adjusted to pH 6.8 with KOH) prior to shock-freezing in liquid nitrogen and subsequent storage at -80°C. αβ-tubulin purity and concentration were determined by SDS-PAGE gel electrophoresis and spectrophotometrically (A = ε x c x d with a given extinction coefficient of 115'000 M^-1cm^-1) at 280 nm. This procedure typically yielded 60-100 mg of αβ-tubulin per 100 g of brain.
Freshly thawed αβ-tubulin was centrifuged at 5000 g for 5 min at 5°C and then incubated with additional BRB80 buffer, drugs, DMSO vehicle, guanosine-5'-triphosphate (GTP) / glutamate (25 mM /2.7 M), respectively, in a 96-well plate in either 50 or 100 µl volumes. Experiments were either carried out in a 96-well quartz plate or in normal 96-well polystyrene plates (Falcon). The polymerization was monitored real-time at 340 nm in a temperature-controlled TECAN GeniosPro spectrophotometer. Depending on the specific experiment, the temperature was set either to room temperature (actual measuring temperature was 24-27°C) or 37°C. […] UV absorption of compounds was subtracted from absorption curves. All experiments, along with both negative (untreated αβ-tubulin) and vehicle controls, were carried out in triplicate. Experiments were performed at least with two different αβ-tubulin batches.

[2] = test system: A549; experiment: Human cancer cell growth inhibition, methylene blue staining, A549; assay type: cell-based
Description: (§1) Stock solutions of the test compounds (2 mM) are prepared in DMSO and stored at -20°C. Human KB-31 and (multidrug-resistant, P-gp170 expressing) KB-8511 epidermoid carcinoma cells (Akiyama et al., Somat. Cell. Mol. Genetics 1985, 11, 117-120), which are both derivatives of the KB cell line (ATCC) and are human epidermis carcinoma cells, are employed. KB 31 cells may be cultivated in mono-layers using Dulbecco's modified Eagle's medium (D-MEM) with 10% foetal calf serum (M.A. Bioproducts), L-glutamine (Flow), penicillin (50 units/ml) and streptomycin (50 µg/ml) (Flow); they then grow at a duplication time of ca. 22 hours, and their relative plating efficiency is ca. 60%. KB-8511 is a variant derived from the KB-31 cell line, which is obtained using colchicine treatment cycles, and has an approximately 40 times relative resistance to colchicine compared with KB-31 cells. The cells are incubated at 37°C in an incubator with 5% v/v CO2 and at 80% relative humidity with MEMAlpha medium which contains ribonucleosides and desoxyribonucleosides (Gibco BRL), complemented with 10 IU penicillin, 10 µg/ml streptomycin and 5% foetal calf serum. The cells are seeded in a quantity of 1.5 x 10^3 cells/well in 96-well microtitre plates, and incubated over night. Serial dilutions of the test compounds in culture medium are added on day 1. […] After washing, the dye is eluted with 3% HCl and the optical density measured at 665 nm with a GeniosPro plate spectrophotometer (Tecan, Switzerland). IC50 values are determined by adaptation of mathematical curves, using the formula [(OD treated)-(OD start) [/] (OD control)-(OD start)] x 100. The IC50 is defined as the concentration of a test compound at the end of the incubation period, which led to 50% of the cell count per well compared with the control (concentration at semi-maximum inhibition of cell growth).
(§2) The preferred ranges of the IC50 values of compounds of formula (I) are given in square parentheses. A549 (lung; ATCC CCL 185) [0.01 to 100 nM], HCT-116 (colon) [0.05 to 200 nM], and PC-3M cells (prostate, hormone-insensitive derivative derived from PC-3, ATCC CRL 1435) [0.05 to 500 nM] were grown in RPMI-1640 medium supplemented with 10% FBS.

[3] = test system: HCT-116; experiment: Human cancer cell growth inhibition, methylene blue staining, HCT-116; assay type: cell-based; conditions: read-out: IC50 HCT-116
Description: as §1, §2

[4] = test system: PC-3M; experiment: Human cancer cell growth inhibition, methylene blue staining, PC-3M; assay type: cell-based; conditions: read-out: IC50 PC-3M
Description: as §1, §2

[5] = test system: KB-31; experiment: Human cancer cell growth inhibition, methylene blue staining, KB-31; assay type: cell-based; conditions: read-out: IC50 KB-31
Description: as §1, with “The cells are incubated at 37°C in an incubator with 5% v/v CO2 and at 80% relative humidity with MEMAlpha medium which contains ribonucleosides and desoxyribonucleosides (Gibco BRL), complemented with 10 IU penicillin, 10 µg/ml streptomycin and 5% foetal calf serum.” left out, “night.” for “night. Serial dilutions of the test compounds in culture medium are added on day 1.”, “(OD control)-(OD start)] x 100. The IC50 is defined as the concentration of a test compound at the end of the incubation period, which led to 50% of the cell count per well compared with the control (concentration at semi-maximum inhibition of cell growth).” left out

[6] = test system: drug-sensitive human cancer cells; experiment: Potency comparison on drug-sensitive human cancer cell lines (from Table 1); assay type: cell-based; conditions: potency ratio versus reference compound B
Description: as §1, with “The cells are incubated at 37°C in an incubator with 5% v/v CO2 and at 80% relative humidity with MEMAlpha medium which contains ribonucleosides and desoxyribonucleosides (Gibco BRL), complemented with 10 IU penicillin, 10 µg/ml streptomycin and 5% foetal calf serum.” left out, “night.” for “night. Serial dilutions of the test compounds in culture medium are added on day 1.”, “(OD control)-(OD start)] x 100. The IC50 is defined as the concentration of a test compound at the end of the incubation period, which led to 50% of the cell count per well compared with the control (concentration at semi-maximum inhibition of cell growth).” left out

Chain of porcine brain αβ-tubulin (P02554 whole entry): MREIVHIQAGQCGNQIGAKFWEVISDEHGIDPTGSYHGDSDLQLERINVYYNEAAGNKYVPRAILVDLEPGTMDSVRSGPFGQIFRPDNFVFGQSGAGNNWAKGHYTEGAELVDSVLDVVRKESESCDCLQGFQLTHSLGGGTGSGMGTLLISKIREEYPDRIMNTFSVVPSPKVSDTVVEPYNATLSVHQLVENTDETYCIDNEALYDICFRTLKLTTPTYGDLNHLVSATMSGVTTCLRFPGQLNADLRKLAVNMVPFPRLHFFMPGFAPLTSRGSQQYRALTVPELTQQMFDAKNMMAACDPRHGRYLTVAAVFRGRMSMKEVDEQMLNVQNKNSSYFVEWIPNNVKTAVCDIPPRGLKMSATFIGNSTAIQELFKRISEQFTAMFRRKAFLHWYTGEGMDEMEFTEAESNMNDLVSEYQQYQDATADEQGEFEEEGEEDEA
Chain of porcine brain αβ-tubulin (P02550 whole entry partner): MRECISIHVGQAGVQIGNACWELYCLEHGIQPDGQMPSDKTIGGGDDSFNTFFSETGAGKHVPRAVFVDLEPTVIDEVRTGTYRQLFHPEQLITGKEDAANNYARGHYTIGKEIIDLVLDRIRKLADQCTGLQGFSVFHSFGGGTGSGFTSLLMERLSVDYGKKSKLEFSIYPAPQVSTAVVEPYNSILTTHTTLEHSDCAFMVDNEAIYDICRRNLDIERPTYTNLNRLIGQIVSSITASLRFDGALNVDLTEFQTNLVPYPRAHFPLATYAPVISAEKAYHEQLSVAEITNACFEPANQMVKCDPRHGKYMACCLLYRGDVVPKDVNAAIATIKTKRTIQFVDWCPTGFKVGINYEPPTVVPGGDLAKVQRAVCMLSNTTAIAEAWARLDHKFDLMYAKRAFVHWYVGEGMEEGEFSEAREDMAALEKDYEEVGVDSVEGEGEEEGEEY

In the case of `CCOC(=O)N1CCC[C@H](C)[C@H](O)[C@@H](C)C(=O)C(C)(C)[C@@H](O)CC(=O)O[C@H](c2ccc3c(c2)nc(C)n3C)CC1` [Compound 2], the EC50 [1] is reported as 5400 ± 400 nM, the IC50 ([2]; A549, read-out: IC50 A549) is reported as 18 ± 3.1 nM and the IC50 ([3]; HCT-116, 72 h) is reported as 23.9 ± 2.9 nM. For the same compound, the IC50 ([4]; PC-3M) was 12.3 ± 1.1 nM.

With `Cc1nc2cc([C@@H]3CCN(C(=O)OC(C)(C)C)C/C=C/[C@H](C)[C@H](O)[C@@H](C)C(=O)C(C)(C)[C@@H](O)CC(=O)O3)ccc2n1C` [A, (2S,9S,10S,11R,14S,E)-tert-butyl-2-(1,2-dimethyl-1H-benzo[d]imidazol-5-yl)-10,14-dihydroxy-9,11,13,13-tetramethyl-12,16-dioxo-1-oxa-5-azacyclohexadec-7-ene-5-carboxylate, reference compound] the EC50 [1] was 9100 ± 700 nM, the IC50 ([2]; A549, read-out: IC50 A549) was 920 ± 85 nM and the IC50 ([3]; HCT-116, 72 h) was 1010 ± 71 nM. It also gave an IC50 ([4]; PC-3M) of 973 ± 64 nM.

`Cc1nc2cc([C@@H]3CCN(c4ccc([N+](=O)[O-])c5nonc45)CCC[C@H](C)[C@H](O)[C@@H](C)C(=O)C(C)(C)[C@@H](O)CC(=O)O3)ccc2n1C` [Compound 17, (2S,9S,10S,11R,14S)-2-(1,2-dimethyl-1H-benzo[d]imidazol-5-yl)-10,14-dihydroxy-9,11,13,13-tetramethyl-5-(7-nitrobenzo[c][1,2,5]oxadiazol-4-yl)-1-oxa-5-azacyclohexadecane-12,16-dione] was tested, and the EC50 [1] was 7200 ± 600 nM, the IC50 ([2]; A549, read-out: IC50 A549) was 329 ± 237 nM and the IC50 ([3]; HCT-116, 72 h) was 206 ± 8 nM. For the same compound, the IC50 ([4]; PC-3M) was 244 ± 45 nM.

With `C/C(=C\c1csc(C)n1)[C@@H]1CCN(C(=O)OC(C)(C)C)CCC[C@H](C)[C@H](O)[C@@H](C)C(=O)C(C)(C)[C@@H](O)CC(=O)O1` [B, reference compound] the EC50 [1] was 5600 ± 400 nM, the IC50 ([2]; A549, read-out: IC50 A549) was 130 ± 24 nM and the IC50 ([3]; HCT-116, 72 h) was 110 ± 19 nM. It also gave an IC50 ([4]; PC-3M) of 126 ± 22 nM and an IC50 ([5]; KB 3-1, 72 h) of 31 nM.

Work on `Cc1nc2cc([C@@H]3CCN(C(=O)OCC(F)(F)F)CCC[C@H](C)[C@H](O)[C@@H](C)C(=O)C(C)(C)[C@@H](O)CC(=O)O3)ccc2n1C` [Compound 3] yielded an EC50 [1] of 5100 ± 500 nM, an IC50 ([2]; A549, read-out: IC50 A549) of 11.5 ± 1.8 nM and an IC50 ([3]; HCT-116, 72 h) of 17.1 ± 3.3 nM. The IC50 ([4]; PC-3M) was 6.3 ± 2.1 nM.

Work on `Cc1nc2cc([C@@H]3CCN(C(=O)OC(C)(C)C)CCC[C@H](C)[C@H](O)[C@@H](C)C(=O)C(C)(C)[C@@H](O)CC(=O)O3)ccc2n1C` [Compound 1, (2S,9S,10S,11R,14S)-tert-butyl-2-(1,2-dimethyl-1H-benzo[d]imidazol-5-yl)-10,14-dihydroxy-9,11,13,13-tetramethyl-12,16-dioxo-1-oxa-5-azacyclohexadecane-5-carboxylate] yielded an EC50 ([1]; concentration required to induce 50% of the maximum αβ-tubulin polymerization achievable with the respective compound, 10 µM of porcine brain αβ-tubulin, turbidity at 340 nm, mean ± standard deviation, read-out: EC50 Tubulin polymerization) of 3900 ± 600 nM, an IC50 ([2]; A549: lung, cells exposed, mean of at least three experiments ± standard deviation, read-out: IC50 A549) of 1.9 ± 0.4 nM and an IC50 ([3]; HCT-116: colon, cells exposed for 72 h, mean of at least three experiments ± standard deviation) of 1.6 ± 0.5 nM. The IC50 ([4]; PC-3M: prostate, cells exposed, mean of at least three experiments ± standard deviation) was 2.3 ± 0.6 nM, the IC50 ([5]; KB 3-1, KB-31: cervical (or cervix), parental line, cells exposed for 72 h) was 0.35 nM and the “more potent against drug-sensitive human cancer cells than aza-epothilone B” value [6] was greater than 60 fold.

`C/C(=C\c1csc(C)n1)[C@@H]1C[C@@H]2O[C@@H]2CCC[C@H](C)[C@H](O)[C@@H](C)C(=O)C(C)(C)[C@@H](O)CC(=O)O1` [C, Epothilone A, reference compound] showed an EC50 [1] of 4600 ± 500 nM, an IC50 ([2]; A549, read-out: IC50 A549) of 3.2 ± 0.5 nM and an IC50 ([3]; HCT-116, 72 h) of 2.2 ± 0.3 nM. It also gave an IC50 ([4]; PC-3M) of 3.4 ± 0.4 nM.
